Assay results reported in patent US12070505B2, “Targeted peptide-drug conjugates” (priority 2021, dated 2024).

Assays:
Details in all cases: 5 μM
MCF-7 cells = test: MTS cytotoxicity assay of [(WR)8WKβA]-Dox, MCF-7; assay type: cell-based
Method: (§1) Cytotoxic activity of the synthesized conjugate and noncovalent mixtures of cyclic [WR]9+Dox was determined in SK-OV-3, MDA-MB-231, MCF-7, MES-SA/MX2, and H9C2 cells. […] An appropriate growth medium was used for each cell line (for SK-OV-3: McCoy's […] with L-glutamine containing fetal bovine serum (FBS) (10%) and penicillin or streptomycin (1%); for MDA-MB-231 and MCF-7 cells: DMEM/F12 (1:1) (1×) with L-Glutamine and 15 mM HEPES containing FBS (10%) and penicillin or streptomycin (1%), and for MES-SA/MX2 and H9C2 cells: Minimum Essential Medium Eagle with Earle's salts and sodium bicarbonate, without L-glutamine containing FBS (10%), and penicillin or streptomycin (1%)). The cells were seeded in a complete growth medium 24 h prior to the experiment. […] The incubation was continued for 3 h.

H9C2 cells = test: Cytotoxicity, MTS assay, normal heart muscle cells (Example 1)
Method: In Vitro Cytotoxicity Assay of Peptide-Drug Conjugates. The cytotoxicity of the compounds was determined by using human leukemia cell line (CCRF-CEM), human ovarian adenocarcinoma cells (SKOV-3) cells, kidney cell line (LLC-PK1), gastric adenocarcinoma cells (AGS), and heart/myocardium cells (H9C2) to evaluate the toxicity of the generated peptides according to a previously reported procedure (Rahman, A.; et al. Proc. Am. Assoc. Cancer Res. 26:2295-2299, 1985, which is incorporated herein by reference). In brief, CCRF-CEM cells were seeded at 50,000 cells in 0.1 mL per well in 98-well plates. In the case of other cell lines, the cells were seeded at 5,000 cells (0.1 mL per well in 96-well plates). The cells were seeded in medium (RPMI-1640 containing FBS (10%)), 24 h prior to the experiment. The compounds at different concentrations (10-50 μM) were added to each well in triplicate and incubated for 24 and 72 h at 37° C. in a humidified atmosphere of 5% CO2. Dox (5 μM) was used as a positive control, while water and cell culture medium were used as negative controls. The compounds were dissolved in water; water was used as a negative control to normalize the data. After the incubation period, MTS reagent (20 μL) was added to each well. The incubation was continued for 2 h. Cell viability was then determined by determination of the fluorescence intensity at 490 nm using a SpectraMax M2 microplate spectrophotometer.

[1] = test system: uterine sarcoma cells (MES-SA/MX2)
Method: In Vitro Cytotoxicity Assay of Peptide-Drug Conjugates. […] In brief, CCRF-CEM cells were seeded at 50,000 cells in 0.1 mL per well in 98-well plates. In the case of other cell lines, the cells were seeded at 5,000 cells (0.1 mL per well in 96-well plates). […] Dox (5 μM) was used as a positive control, while water and cell culture medium were used as negative controls. The compounds were dissolved in water; water was used as a negative control to normalize the data. After the incubation period, MTS reagent (20 μL) was added to each well. The incubation was continued for 2 h. Cell viability was then determined by determination of the fluorescence intensity at 490 nm using a SpectraMax M2 microplate spectrophotometer. The percentage of cell viability was then calculated using the following equation: [(OD value of cells treated with the compound)−(OD value of culture medium)]/[(OD value of control cells)−(OD value of culture medium)]×100% (FIGS. 6-9).

MDA-MB-231 cells = test: MTS cytotoxicity assay of [(WR)8WKβA]-Dox, MDA-MB-231
Method: as §1

COc1cccc2c1C(=O)c1c(O)c3c(c(O)c1C2=O)C[C@@](O)(C(=O)CO)C[C@@H]3O[C@H]1C[C@H](N)[C@H](O)[C@H](C)O1 [Dox, doxorubicin, reference compound]
reduction of cell proliferation (MCF-7 cells; 24 h): 21% | reduction of cell proliferation (MCF-7 cells; 72 h): 57% | reduction of cell survival (H9C2 cells; H9C2, 24 h): 20% | reduction of cell survival (H9C2 cells; H9C2, 72 h): 44% | reduction of cell survival (H9C2 cells; H9C2, 96 h): 44% | reduction of viability of heart cells (H9C2 cells; H9C2, time not stated): 44% | Cell Viability (%) after 24 h (H9C2 cells; normal heart H9C2): 80 ± 2% | Cell Viability (%) after 72 h (H9C2 cells; normal heart H9C2): 56 ± 3% | Cell Viability (%) after 96 h (H9C2 cells; normal heart H9C2): 56 ± 1% | Cell Viability (%) after 72 h [1]: 119 ± 5% | toxicity ([1]; 72 h): did not show any toxicity | cell viability (MDA-MB-231 cells; 24 h): 79% | cell viability (MDA-MB-231 cells; 72 h): 37% | inhibition of cell viability/proliferation (MDA-MB-231 cells; 72 h): 63%
